Assay results: patent US20230136297A1, “Methods Of Treating Fabry Disease In Patients Having A Mutation In The GLA Gene” (Amicus Therapeutics, Inc., priority 2020, published 2023)
Changes are numbered by the printed parent chain.

What was measured:
α-Gal A mutant form A29D = test: α-Gal A activity in lysates of transfected HEK-293 cells ± migalastat (HEK assay); assay type: cell-based, human
Excerpt: (§1) Such mutations or variants are also referred to herein as “HEK assay amenable” mutations or variants.
(§2) The α-Gal A activity is expressed as the nmoles of free 4-MU released per milligram of protein per hour (nmol/mg/hr).

[1] = molecular target: T1, α-Gal A mutant form G271A (Homo sapiens, UniProt P06280, G271A); test: as above; assay type: cell-based
T1 construct: expressed in transfected cells; host or cells: HEK-293
T1 sequence (P06280 32-429 G271A): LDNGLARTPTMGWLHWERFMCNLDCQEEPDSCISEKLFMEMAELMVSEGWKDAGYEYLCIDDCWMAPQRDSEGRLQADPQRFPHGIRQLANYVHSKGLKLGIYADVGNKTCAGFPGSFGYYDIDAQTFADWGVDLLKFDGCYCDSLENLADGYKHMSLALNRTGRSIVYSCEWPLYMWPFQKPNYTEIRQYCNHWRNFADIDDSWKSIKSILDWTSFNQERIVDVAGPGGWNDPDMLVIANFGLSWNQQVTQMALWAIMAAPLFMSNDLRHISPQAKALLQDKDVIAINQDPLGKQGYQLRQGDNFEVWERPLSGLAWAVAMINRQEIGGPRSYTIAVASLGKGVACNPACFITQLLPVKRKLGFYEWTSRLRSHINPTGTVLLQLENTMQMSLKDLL
Outline: (§3)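 Activity is reported as nmol of free 4-MU released per mg protein per hour (nmol/mg/hr).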

[2] = molecular target: T2, α-Gal A mutant form I133F (Homo sapiens, UniProt P06280, I133F); test: as above; assay type: cell-based
T2 construct: expressed in transfected cells; host or cells: HEK-293
T2 sequence (P06280 32-429 I133F): T1 sequence (P06280 32-429 G271A) with I102F, A240G
Outline: as §3

[3] = molecular target: T3, α-Gal A mutant form I303V (Homo sapiens, UniProt P06280, I303V); test: as above; assay type: cell-based
T3 construct: expressed in transfected cells; host or cells: HEK-293
T3 sequence (P06280 32-429 I303V): T1 sequence (P06280 32-429 G271A) with A240G, I272V
Outline: as §3

[4] = molecular target: T4, α-Gal A mutant form L394P (Homo sapiens, UniProt P06280, L394P); test: as above; assay type: cell-based
T4 construct: expressed in transfected cells; host or cells: HEK-293
T4 sequence (P06280 32-429 L394P): T1 sequence (P06280 32-429 G271A) with A240G, L363P
Outline: as §3

[5] = molecular target: T5, α-Gal A mutant form W209R (Homo sapiens, UniProt P06280, W209R); test: as above; assay type: cell-based
T5 construct: expressed in transfected cells; host or cells: HEK-293
T5 sequence (P06280 32-429 W209R): T1 sequence (P06280 32-429 G271A) with W178R, A240G
Outline: as §3

[6] = tested on: novel α-Gal A mutations A29D, R38S, N53Y, Y88C, V124G, I133F, A143V, Y152N, F159C, A160D, D165N, F169I, L180V, D182G, R196T, W209R, A257T, P259S, G271A, S276T …; test: HEK assay, amenability of the novel mutations taken together; assay type: cell-based, human; conditions: all 31 novel mutations; criteria: relative increase ≥1.20-fold and absolute increase ≥3.0% wild-type at 10 μM migalastat
Excerpt: as §1, §2

[7] = 10 μM migalastat minus baseline
[8] = HEK-293 lysates, 10 μM migalastat 5 days, mean ± SEM

OC[C@H]1NC[C@H](O)[C@@H](O)[C@H]1O [migalastat, (2R,3S,4R,5S)-2-(hydroxymethyl) piperdine-3,4,5-triol]
Absolute increase (% WT) (α-Gal A mutant form A29D; [7]): 5.1 % WT
Relative increase (α-Gal A mutant form A29D; 10 μM migalastat ÷ baseline): 1.35
10 μM migalastat α-Gal A activity (α-Gal A mutant form A29D; [8]): 6877 ± 474 nmol/mg/h
10 μM migalastat α-Gal A activity (% WT) (α-Gal A mutant form A29D; [8]): 20.3 ± 1.1 % WT
Absolute increase (% WT) [1, 7]: 34.4 % WT
Relative increase ([1]; 10 μM migalastat ÷ baseline): 3.87
10 μM migalastat α-Gal A activity [1, 8]: 18928 ± 1069 nmol/mg/h
10 μM migalastat α-Gal A activity (% WT) [1, 8]: 46.4 ± 1.8 % WT
Absolute increase (% WT) [2, 7]: 3.1 % WT
Relative increase ([2]; 10 μM migalastat ÷ baseline): 5.27
10 μM migalastat α-Gal A activity [2, 8]: 1542 ± 154 nmol/mg/h
10 μM migalastat α-Gal A activity (% WT) [2, 8]: 3.8 ± 0.3 % WT
Absolute increase (% WT) [3, 7]: 35 % WT
Relative increase ([3]; 10 μM migalastat ÷ baseline): 1.91
10 μM migalastat α-Gal A activity [3, 8]: 28958 ± 3153 nmol/mg/h
10 μM migalastat α-Gal A activity (% WT) [3, 8]: 73.2 ± 8.8 % WT
Absolute increase (% WT) [4, 7]: 7.2 % WT
Relative increase ([4]; 10 μM migalastat ÷ baseline): 1.52
10 μM migalastat α-Gal A activity [4, 8]: 7749 ± 582 nmol/mg/h
10 μM migalastat α-Gal A activity (% WT) [4, 8]: 22.3 ± 2.4 % WT
Absolute increase (% WT) [5, 7]: 17.5 % WT
Relative increase ([5]; 10 μM migalastat ÷ baseline): 1.25
10 μM migalastat α-Gal A activity [5, 8]: 28729 ± 1293 nmol/mg/h
10 μM migalastat α-Gal A activity (% WT) [5, 8]: 81.1 ± 4.6 % WT
in vitro response to incubation with migalastat [6]: met amenability criteria
